Test results: patent US20070026090A1, “Treatment and prevention of inflammatory disease and mitochondrial dysfunction with high dose selenium” (priority 2003, published 2007)

Tested on: NRF-1
Test: NRF1 mRNA in colon tissue (RT-PCR)
Type: in vivo, rat
Protocol: Mitochondrial (mt) TFA, NRF1, and cytochrome c mRNA analysis: Total RNA was extracted from 50 to 100 mg tissue at a time using 1 ml of Tri Reagent® (Sigma-Aldrich Corp., St. Louis, Mo.) according to manufacturer's instructions. First strand cDNA synthesis was carried out using reverse-iTTM First Strand Synthesis from Advanced Biotechnologies (ABgene®, ABgene, Epsom, U.K.) was used according to the manufacturer's instructions. Target sequences were amplified in the PCR reaction as follows: each tube contained 37 ng of cDNA from cytochrome c, GAPDH, or 18S, 3 μl of specific primers, 12.5 μl of ready Mix and 6.5 μl water DEPC (for a total 25 μl in each tube).
The PCR for cytochrome c, NRF1 and mtTFA was run at 95° C. for 5 min, 94° C. for 30 sec, 56° C. for 2 min, 72° C. for 1 min, back to stage 2 for 22, 26, 24 cycles, respectively, then 72° C. for 10 min, and 4° C. The products of the PCR were separated on a 1% agarose gel in TAE buffer with ethidium bromide. The electrophoresis took place in a BioRad device in 1×TAE buffer at 95 V for about 50 min (maximum mA). The size of the cDNA was determined by a 100-bp marker.
Rat NFR-1: (Antisense) 5′-[…]-3′ (SEQ ID No. 13) corresponding to nucleotides 450 to 469 of rat NFR-1 (GenBank Accession No. XM231566).
(Sense): 5′-[…] -3′ (SEQ ID No. 14). The expected PCR product was 461 bp, the actual 461 bp.

[Se] [selenium]
NRF-1 levels in colon tissue, colitis-induced rats (24 h after TNBS, supplemented (FIG. 17 lane 4), unsupplemented nearly 50% reduction): surpass that of healthy control rats
NRF-1 levels in colon tissue, healthy rats (healthy supplemented rats (FIG. 17 lane 2)): significantly enhances
